Data reported in US9216991B2 (Ares Trading S.A., priority 2012, dated 2015).
Where a name gives a salt, the structure may show the parent alone.

Target: T1, IRAK4 (Homo sapiens, UniProt Q9NWZ3)
T1 construct: His (N); TEV cleavage site (N)
T1 sequence (Q9NWZ3 1-460): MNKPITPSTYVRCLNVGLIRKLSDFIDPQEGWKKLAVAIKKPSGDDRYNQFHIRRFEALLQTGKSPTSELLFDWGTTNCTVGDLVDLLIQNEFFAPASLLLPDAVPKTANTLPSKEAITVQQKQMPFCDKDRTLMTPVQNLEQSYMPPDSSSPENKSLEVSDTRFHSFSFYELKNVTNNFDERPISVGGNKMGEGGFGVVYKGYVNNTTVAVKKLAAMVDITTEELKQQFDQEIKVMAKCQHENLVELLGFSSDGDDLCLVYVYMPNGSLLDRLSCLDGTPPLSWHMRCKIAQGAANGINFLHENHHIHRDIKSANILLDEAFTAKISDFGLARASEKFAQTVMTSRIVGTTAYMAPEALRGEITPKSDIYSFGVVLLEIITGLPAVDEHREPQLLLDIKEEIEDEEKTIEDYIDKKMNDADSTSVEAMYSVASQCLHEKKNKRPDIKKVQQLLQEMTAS
Assay: IRAK4 Enzymatic Assay
Format: biochemical
Settings: His-TEV-IRAK4 20 ng/well, ATP 2 μM, STK1-biotin peptide 300 nM, 3 hours at 30° C., FlashPlate radioactivity
Protocol: IRAK4 is a human purified recombinant enzyme (His-TEV-IRAK1 (194-712)
IRAK4 hydrolyses ATP, autophosphorylates and phosphorylates a Serine/Threonine generic peptidic substrate (STK: 61ST1BLC from CisBio International based in Bagnols/Cèze FR).
Measurement of IRAK-4 inhibition is performed in streptavidin coated 384 well FlashPlate (PerkinElmer #SMP410A). His-TEV-IRAK4 (20 ng/well), ATP (2 μM, [^33P]ATP 0.25 μCi/well), STK1-biotin peptide (300 nM) and compounds in DMSO (range of concentrations from 20 μM to 1nM) or controls (2% DMSO) are incubated for 3 hours at 30° C. in assay buffer: Hepes pH7.0 50 mM, Fatty acid-free BSA 0.1%, Dithiothreitol DTT 2 mM, MgCl2 10 mM, EGTA 0.5 mM, Tween-20 0.01%, MnCl2 5 mM.
Kinase reaction is stopped by addition of EDTA. Supernatant is discarded, plates are washed three times with 150 mM NaCl and radioactivity is then measured in a Microbeta Trilux reader.

| IC50 | Structure (SMILES) |
| --- | --- |
| 1 to 5 µM | COC1CN(C(=O)CCn2cc(-c3cnc(-c4cccc(-c5cnn(C)c5)c4)nc3)cn2)C1 [Example 100, 1-(3-Methoxy-azetidin-1-yl)-3-(4-{2-[3-(1-methyl-1H-pyrazol-4-yl)-phenyl]-pyrimidin-5-yl}-pyrazol-1-yl)-propan-1-one] |
| < 0.1 µM | C[C@H]1C[C@@H](n2cc(-c3cnc(-c4cccc(-c5cnn(C)c5)c4)nc3)cn2)CCN1 [Example 246, 5-[1-((2S,4S)-2-Methyl-piperidin-4-yl)-1H-pyrazol-4-yl]-2-[3-(1-methyl-1H-pyrazol-4-yl)-phenyl]-pyrimidine] |
| 0.1 to 1 µM | CC(C)[C@H](CO)NC(=O)[C@H]1CC[C@H](n2cc(-c3cnc(-c4cccc(-c5cnn(C)c5)c4)nc3)cn2)CC1 [Example 163, Trans-4-(4-{2-[3-(1-Methyl-1H-pyrazol-4-yl)-phenyl]-pyrimidin-5-yl}-pyrazol-1-yl)-cyclohexanecarboxylic acid ((R)-1-hydroxymethyl-2-methyl-propyl)-amide] |
| < 0.1 µM | Cn1cc(-c2cccc(-c3ncc(-c4cnn([C@H]5CC[C@H](C(=O)NC6CC6)CC5)c4)cn3)c2)cn1 [Example 170, Trans-4-(4-{2-[3-(1-Methyl-1H-pyrazol-4-yl)-phenyl]-pyrimidin-5-yl}-pyrazol-1-yl)-cyclohexanecarboxylic acid cyclopropylamide] |
| 0.1 to 1 µM | Cn1cc(-c2cccc(-c3ncc(-c4cnn(CC(=O)NC5CCOCC5)c4)cn3)c2)cn1 [Example 54, 2-(4-{2-[3-(1-Methyl-1H-pyrazol-4-yl)-phenyl]-pyrimidin-5-yl}-pyrazol-1-yl)-N-(tetrahydro-pyran-4-yl)-acetamide] |
| < 0.1 µM | CC(=O)N1CC[C@H](n2cc(-c3cnc(-c4cccc(-c5cnn(C)c5)c4)nc3)cn2)C[C@@H]1C [Example 248, 1-[(2S,4S)-2-Methyl-4-(4-{2-[3-(1-methyl-1H-pyrazol-4-yl)-phenyl]-pyrimidin-5-yl}-pyrazol-1-yl)-piperidin-1-yl]-ethanone] |
| < 0.1 µM | CC(C)CNC(=O)[C@H]1CC[C@H](n2cc(-c3cnc(-c4cccc(-c5cnn(C)c5)c4)nc3)cn2)CC1 [Example 173, Trans-4-(4-{2-[3-(1-Methyl-1H-pyrazol-4-yl)-phenyl]-pyrimidin-5-yl}-pyrazol-1-yl)-cyclohexanecarboxylic acid isobutyl-amide] |
| 0.1 to 1 µM | CC(=O)N1CC[C@H](n2cc(-c3cnc(-c4cccc(-c5cnn(C)c5)c4)nc3)cn2)[C@@H](O)C1 [Example 225, 1-[(3S,4S)-3-Hydroxy-4-(4-{2-[3-(1-methyl-1H-pyrazol-4-yl)-phenyl]-pyrimidin-5-yl}-pyrazol-1-yl)-piperidin-1-yl]-ethanone] |
| 0.1 to 1 µM | COC1CN(C(=O)Cn2cc(-c3cnc(-c4cccc(-c5cnn(C)c5)c4)nc3)cn2)C1 [Example 40, 1-(3-Methoxy-azetidin-1-yl)-2-(4-{2-[3-(1-methyl-1H-pyrazol-4-yl)-phenyl]-pyrimidin-5-yl}-pyrazol-1-yl)-ethanone] |
| 0.1 to 1 µM | CNC(=O)[C@H]1CCC[C@H](n2cc(-c3cnc(-c4cccc(-c5cnn(C)c5)c4)nc3)cn2)C1 (relative stereo) [Example 181, trans-3-(4-{2-[3-(1-Methyl-1H-pyrazol-4-yl)-phenyl]-pyrimidin-5-yl}-pyrazol-1-yl)-cyclohexanecarboxylic acid methylamide] |
| 0.1 to 1 µM | Cc1cc(-c2cccc(-c3ncc(-c4cnn(C5CCOCC5)c4)cn3)c2)cnn1 [Example 138, 3-Methyl-5-(3-{5-[1-(tetrahydro-pyran-4-yl)-1H-pyrazol-4-yl]-pyrimidin-2-yl}-phenyl)-pyridazine] |
| 1 to 5 µM | COCC(O)Cn1cc(-c2cnc(-c3cccc(-c4cnn(C)c4)c3)nc2)cn1 (centres unmarked) [Example 35, 1-Methoxy-3-(4-{2-[3-(1-methyl-1H-pyrazol-4-yl)-phenyl]-pyrimidin-5-yl}-pyrazol-1-yl)-propan-2-ol] |
| 0.1 to 1 µM | Cn1cc(-c2cccc(-c3ncc(-c4cnn(CC5CCOC5)c4)cn3)c2)cn1 (centres unmarked) [Example 45, 2-[3-(1-Methyl-1H-pyrazol-4-yl)-phenyl]-5-[1-(tetrahydro-furan-3-ylmethyl)-1H-pyrazol-4-yl]-pyrimidine] |
| 1 to 5 µM | O=C(Cn1cc(-c2cnc(-c3cccc(-c4cnn(CCO)c4)c3)nc2)cn1)N1CCCC1 [Example 59, 2-[4-(2-{3-[1-(2-Hydroxy-ethyl)-1H-pyrazol-4-yl]-phenyl}-pyrimidin-5-yl)-pyrazol-1-yl]-1-pyrrolidin-1-yl-ethanone] |
| 1 to 5 µM | CC(C)OCC(CO)n1cc(-c2cnc(-c3cccc(-c4cnn(C)c4)c3)nc2)cn1 (centres unmarked) [Example 214, 3-Isopropoxy-2-(4-{2-[3-(1-methyl-1H-pyrazol-4-yl)-phenyl]-pyrimidin-5-yl}-pyrazol-1-yl)-propan-1-ol] |
| 0.1 to 1 µM | Cc1c(-c2cccc(-c3ncc(-c4cnn(C5CCNCC5)c4)cn3)c2)cnn1C [Example 15, 2-[3-(1,5-Dimethyl-1H-pyrazol-4-yl)-phenyl]-5-(1-piperidin-4-yl-1H-pyrazol-4-yl)-pyrimidine hydrochloride] |
| 1 to 5 µM | Cn1cc(-c2cccc(-c3ncc(-c4cnn(C(C)(C)C(=O)N5CCOCC5)c4)cn3)c2)cn1 [Example 150, 2-Methyl-2-(4-{2-[3-(1-methyl-1H-pyrazol-4-yl)-phenyl]-pyrimidin-5-yl}-pyrazol-1-yl)-1-morpholin-4-yl-propan-1-one] |
| 0.1 to 1 µM | CN(C(=O)Cn1cc(-c2cnc(-c3cccc(-c4cnn(C)c4)c3)nc2)cn1)C1CCOCC1 [Example 91, N-Methyl-2-(4-{2-[3-(1-methyl-1H-pyrazol-4-yl)-phenyl]-pyrimidin-5-yl}-pyrazol-1-yl)-N-(tetrahydro-pyran-4-yl)-acetamide] |
| < 0.1 µM | Cn1cc(-c2cccc(-c3ncc(-c4cnn(C5CCC(C(=O)N6CCO[C@H](CO)C6)CC5)c4)cn3)c2)cn1 (stereo partly drawn) [Example 261, ((S)-2-Hydroxymethyl-morpholin-4-yl)-[4-((S)-4-{2-[3-(1-methyl-1H-pyrazol-4-yl)-phenyl]-pyrimidin-5-yl}-pyrazol-1-yl)-cyclohexyl]-methanone] |
| 1 to 5 µM | Cn1cc(-c2cccc(-c3ncc(-c4cnn(CCNS(C)(=O)=O)c4)cn3)c2)cn1 [Example 210, N-[2-(4-{2-[3-(1-Methyl-1H-pyrazol-4-yl)-phenyl]-pyrimidin-5-yl}-pyrazol-1-yl)-ethyl]-methanesulfonamide] |
| 1 to 5 µM | O=C(Cn1cc(-c2cccc(-c3ncc(-c4cnn(C5CCNCC5)c4)cn3)c2)cn1)N1CCCC1 [Example 17, 2-(4-{3-[5-(1-Piperidin-4-yl-1H-pyrazol-4-yl)-pyrimidin-2-yl]-phenyl}-pyrazol-1-yl)-1-pyrrolidin-1-yl-ethanone hydrochloride] |
| 0.1 to 1 µM | Cn1cc(-c2cccc(-c3ncc(-c4cnn(C5CCCC5O)c4)cn3)c2)cn1 (centres unmarked) [Example 211, 2-(4-{2-[3-(1-Methyl-1H-pyrazol-4-yl)-phenyl]-pyrimidin-5-yl}-pyrazol-1-yl)-cyclopentanol] |
| 0.1 to 1 µM | Cn1cc(-c2cccc(-c3ncc(-c4cnn(C5CCC[C@@H](S(C)(=O)=O)C5)c4)cn3)c2)cn1 (single isomer, unassigned) [Example 282, 5-[1-(trans-3-Methanesulfonyl-cyclohexyl)-1H-pyrazol-4-yl]-2-[3-(1-methyl-1H-pyrazol-4-yl)-phenyl]-pyrimidine] |
